# Data reported in patent US8367687B2, “Pyrazole derivatives” (Novartis AG, priority 2007, dated 2013).
# Like-named read-outs stand apart in the source and are kept apart here.
# Tests used:
# Type in all cases: biochemical
# [1] = molecular target: CDK4 (Homo sapiens, UniProt P11802); experiment: CDK4 HTRF
# [2] = molecular target: CDK2 cyA (Homo sapiens, UniProt P24941); experiment: CDK2 cyA IMAP
# [3] = molecular target: hCDK1/B (Homo sapiens, UniProt P06493); experiment: hCDK1/B
# [4] = Table 1, read-out: CDK2 cyA IMAP
# [5] = Table 2, read-out: CDK4 HTRF/ IC50
# [6] = Table 2, read-out: CDK2cyA IMAP/ IC50
# Chain of hCDK1/B (P06493 whole entry): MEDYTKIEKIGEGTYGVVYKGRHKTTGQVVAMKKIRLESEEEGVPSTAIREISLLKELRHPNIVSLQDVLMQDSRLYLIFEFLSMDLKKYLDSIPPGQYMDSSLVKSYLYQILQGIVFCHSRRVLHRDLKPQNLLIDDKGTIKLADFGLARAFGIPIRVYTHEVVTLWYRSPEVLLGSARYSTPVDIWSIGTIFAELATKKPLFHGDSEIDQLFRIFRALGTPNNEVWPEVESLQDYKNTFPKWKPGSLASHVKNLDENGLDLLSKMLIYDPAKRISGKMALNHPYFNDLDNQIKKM
# Chain of hCDK1/B (P14635 whole entry partner): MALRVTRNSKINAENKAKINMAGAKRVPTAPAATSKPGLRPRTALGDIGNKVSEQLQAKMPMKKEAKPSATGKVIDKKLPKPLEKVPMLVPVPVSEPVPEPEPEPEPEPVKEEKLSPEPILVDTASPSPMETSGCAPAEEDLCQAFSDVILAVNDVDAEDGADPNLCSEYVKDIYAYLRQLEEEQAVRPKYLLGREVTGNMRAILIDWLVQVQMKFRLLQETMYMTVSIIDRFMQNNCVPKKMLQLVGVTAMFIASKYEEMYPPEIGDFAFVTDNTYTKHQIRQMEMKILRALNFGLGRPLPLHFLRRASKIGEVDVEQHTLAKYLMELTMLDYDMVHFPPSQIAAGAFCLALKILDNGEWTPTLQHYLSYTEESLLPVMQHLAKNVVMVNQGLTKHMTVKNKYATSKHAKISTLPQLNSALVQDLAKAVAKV
# Chain of CDK4 (P11802 whole entry): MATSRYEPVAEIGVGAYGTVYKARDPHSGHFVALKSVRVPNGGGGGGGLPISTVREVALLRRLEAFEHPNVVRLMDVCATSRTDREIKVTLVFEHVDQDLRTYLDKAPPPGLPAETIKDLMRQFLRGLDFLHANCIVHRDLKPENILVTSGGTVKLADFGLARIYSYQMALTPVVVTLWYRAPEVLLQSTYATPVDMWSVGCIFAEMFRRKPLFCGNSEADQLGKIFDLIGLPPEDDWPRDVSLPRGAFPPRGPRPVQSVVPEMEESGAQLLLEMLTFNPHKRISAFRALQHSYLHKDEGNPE
# Chain of CDK4 (P24385 whole entry partner): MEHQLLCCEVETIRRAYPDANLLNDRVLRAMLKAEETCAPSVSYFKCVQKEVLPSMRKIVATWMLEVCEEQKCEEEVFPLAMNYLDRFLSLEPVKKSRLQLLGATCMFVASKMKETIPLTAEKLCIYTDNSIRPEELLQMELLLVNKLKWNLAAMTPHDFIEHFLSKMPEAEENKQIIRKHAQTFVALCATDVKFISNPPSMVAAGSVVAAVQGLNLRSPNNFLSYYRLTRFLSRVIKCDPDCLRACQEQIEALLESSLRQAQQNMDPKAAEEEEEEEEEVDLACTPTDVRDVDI
Structure (SMILES),"IC50 ([1]; Table 1, read-out: CDK4 HTRF) [µM]","IC50 [2, 4] [µM]",IC50 ([3]; Table 1) [µM],"IC50 [1, 5] [µM]","IC50 [2, 6] [µM]",IC50 ([3]; Table 2) [µM]
CCC(C)c1[nH]ncc1-c1ccnc(NCc2ccccc2C)c1 (stereo not drawn) [Example 81],< 1,< 5,< 5,,,
CC(C)c1[nH]ncc1-c1ccnc(NC2CCc3ccccc32)c1 (stereo not drawn) [Example 43],< 0.5,< 5,< 5,,,
CC(C)c1[nH]ncc1-c1ccnc(NCC2CCCCCC2)c1 [Example 20],< 5,< 5,< 5,,,
c1ccc2c(c1)CC(Nc1cc(-c3cn[nH]c3C3CC3)ccn1)C2 [Example 69],< 0.1,< 1,< 1,,,
CC(C)c1[nH]ncc1-c1ccnc(NCc2ccco2)c1 [Example 24],< 1,< 5,< 5,,,
CC(C)c1[nH]ncc1-c1ccnc(NCc2cc(F)cc(F)c2)c1 [Example 38],< 1,< 5,< 5,,,
c1cc(-c2cn[nH]c2C2CCCC2)cc(NC2CCC2)n1 [Example 52],< 0.5,< 0.5,< 5,,,
CC(C)c1[nH]ncc1-c1ccnc(NCCc2cccnc2)c1 [Example 15],< 0.5,< 5,< 5,,,
CC(C)c1n[nH]cc1-c1ccnc(NCc2ccccc2OC(F)(F)F)n1 [Example 158],,,,< 15,≥ 15,< 5
COCC(C)Nc1nccc(-c2c[nH]nc2C(C)C)n1 (stereo not drawn) [Example 152],,,,< 0.5,< 1,< 1
CCCCNc1cc(-c2cn[nH]c2C(C)C)ccn1 [Example 10],< 0.5,< 5,< 5,,,
Cc1cccc(CNc2cc(-c3cn[nH]c3C(C)C)ccn2)c1 [Example 49],< 5,< 5,< 5,,,
CC(C)c1n[nH]cc1-c1ccnc(NCc2ccccc2F)n1 [Example 165],,,,< 1,< 0.5,< 0.5
c1cc(-c2cn[nH]c2C2CCCC2)cc(NC2CCCC2)n1 [Example 3],< 0.5,< 0.5,< 1,,,
CC(C)c1n[nH]cc1-c1ccnc(NCCN2CCCCC2)n1 [Example 173],,,,< 0.5,≥ 15,< 15
CC(C)c1[nH]ncc1-c1ccnc(NCCCN2CCCC2)c1 [Example 19],< 10,≥ 15,≥ 15,,,
Cc1nnc(C(C)Nc2nccc(-c3c[nH]nc3C(C)C)n2)[nH]1 (stereo not drawn) [Example 162],,,,< 0.5,< 15,< 10
CC(C)c1n[nH]cc1-c1ccnc(NCc2ccccc2Cl)n1 [Example 153],,,,< 5,< 1,< 1
CC(C)c1n[nH]cc1-c1ccnc(NC(C)c2ccccn2)n1 (stereo not drawn) [Example 183],,,,< 0.5,< 10,< 10
CC(C)c1[nH]ncc1-c1ccnc(NC(C)c2ccccc2)c1 (stereo not drawn) [Example 27],< 1,< 5,< 5,,,
c1ccc(CCNc2cc(-c3cn[nH]c3C3CCCC3)ccn2)cc1 [Example 58],< 0.5,< 5,< 5,,,
CC(C)c1n[nH]cc1-c1ccnc(NC(C)c2ccccc2)n1 (stereo not drawn) [Example 168],,,,< 0.05,< 5,< 1
Cc1n[nH]cc1-c1ccnc(NC2CCc3ccccc32)n1 (stereo not drawn) [Example 112],,,,< 0.5,< 10,< 10
Cc1n[nH]cc1-c1ccnc(NC2CCN(C)CC2)n1 [Example 90],,,,< 0.5,< 15,< 15
CC(C)c1nn(C)cc1-c1ccnc(NC2CCN(C)CC2)n1 [Example 181],,,,< 0.5,< 5,< 5
Cc1ccccc1CNc1nccc(-c2c[nH]nc2C(C)C)n1 [Example 164],,,,< 0.5,< 1,< 0.5

Structure (SMILES),"IC50 ([1]; Table 1, read-out: CDK4 HTRF) [µM]","IC50 [2, 4] [µM]",IC50 ([3]; Table 1) [µM],"IC50 [1, 5] [µM]","IC50 [2, 6] [µM]",IC50 ([3]; Table 2) [µM]
CC(C)c1[nH]ncc1-c1ccnc(NCC2CC2)c1 [Example 8],< 0.5,< 5,< 5,,,
CC(C)c1[nH]ncc1-c1ccnc(NC2CCCCC2)c1 [Example 7],< 0.5,< 0.5,< 1,,,
CC(C)c1[nH]ncc1-c1ccnc(NCCCCN(C)C)c1 [Example 18],< 5,≥ 15,≥ 15,,,
FC(F)(F)c1ccccc1CNc1cc(-c2cn[nH]c2C2CCCC2)ccn1 [Example 63],< 10,< 5,< 5,,,
c1cc(-c2cn[nH]c2C2CCCC2)cc(NC2CC2)n1 [Example 53],< 0.5,< 1,< 5,,,
CN1CCC(Nc2cc(-c3cn[nH]c3C3CC3)ccn2)CC1 [Example 80],< 0.5,≥ 15,< 15,,,
COCCNc1cc(-c2cn[nH]c2C(C)C)ccn1 [Example 5],< 5,< 10,< 10,,,
CC(C)c1n[nH]cc1-c1ccnc(NCc2ccccc2C(F)(F)F)n1 [Example 154],,,,< 5,< 5,< 5
CC(CCCC(C)(C)O)Nc1nccc(-c2c[nH]nc2C(C)C)n1 (stereo not drawn) [Example 145],,,,< 0.5,< 5,< 1
Cc1n[nH]cc1-c1ccnc(NC2CCCC2)n1 [Example 86],,,,< 1,< 5,< 5
Cc1ccccc1CNc1cc(-c2cn[nH]c2C(C)(C)C)ccn1 [Example 76],< 10,≥ 15,< 15,,,
Cc1n[nH]cc1-c1ccnc(NC2CCCCCC2)n1 [Example 87],,,,< 1,< 5,< 5
c1ccc2c(c1)CC(Nc1cc(-c3cn[nH]c3C3CCCCCC3)ccn1)C2 [Example 67],< 5,< 1,< 5,,,
CC(C)c1[nH]ncc1-c1ccnc(NCCCO)c1 [Example 23],< 5,< 5,< 5,,,
CCC(C)c1[nH]ncc1-c1ccnc(NC2CCc3ccccc32)c1 (stereo not drawn) [Example 82],< 5,< 5,< 5,,,
CC(C)c1[nH]ncc1-c1ccnc(NC(CO)C(C)C)c1 (stereo not drawn) [Example 46],< 0.5,< 15,< 10,,,
CCC(C)Nc1cc(-c2cn[nH]c2C(C)C)ccn1 (stereo not drawn) [Example 26],< 0.5,< 1,< 5,,,
CN1CCC(Nc2cc(-c3cn[nH]c3C(C)(C)C)ccn2)CC1 [Example 77],< 15,< 15,≥ 15,,,
Cc1ccc(CNc2cc(-c3cn[nH]c3C(C)C)ccn2)cc1 [Example 28],< 5,< 5,< 5,,,
c1cncc(CCNc2cc(-c3cn[nH]c3C3CCCC3)ccn2)c1 [Example 59],< 0.5,< 5,< 5,,,
Cc1n[nH]cc1-c1ccnc(NCCCn2ccnc2)n1 [Example 106],,,,< 5,< 10,< 5
CC(C)CNc1cc(-c2cn[nH]c2C2CCCC2)ccn1 [Example 56],< 0.5,< 1,< 5,,,
COCCCNc1cc(-c2cn[nH]c2C(C)C)ccn1 [Example 11],< 1,< 5,< 5,,,
CC(C)(C)c1[nH]ncc1-c1ccnc(NC2CCc3ccccc32)c1 (stereo not drawn) [Example 75],< 15,≥ 15,≥ 15,,,
CC(C)c1[nH]ncc1-c1ccnc(NC2CCN(Cc3ccccc3)CC2)c1 [Example 45],< 0.5,≥ 15,< 15,,,
CCCNc1cc(-c2cn[nH]c2C(C)C)ccn1 [Example 44],< 0.5,< 5,< 5,,,
